Where a SMILES comes first, the peptide text is derived from it. Bridges are numbered along the chain shown (N, C = ends). [ ]: non-standard residue; d: D form.
What was measured:
growth hormone = assay: Suppression of growth hormone, glucagon and insulin (arginine-stimulated, nembutal rats): GH; assay type: in vivo; conditions: 100 μg/kg. s.c., arginine challenge (table 5)
Description: (§1) Albino male rats are arranged in three groups (nine rats/group) and injected i.p. with nembutal at 50mg/kg. 15 minutes after the nembutal injection they are injected s.c. according to group with (a) test compound, typically 10-2000 μg/kg.; (b) SRIF 200 μg/kg.; or (c) physiological saline. 10 minutes later 0.5 ml. of arginine (300 mg/ml., pH 7.2) is injected into the heart. The rats are decapitated 5 minutes after receiving the arginine, and the blood is collected into Trasylol-EDTA. Appropriate aliquots are then assayed for growth hormone, glucagon and insulin. […] Comparisons between control and experimental values are statistically evaluated by the analysis of variants method and statistical significance (p) at 0.05 or lower is used as the index of activity.

glucagon = assay: Suppression of growth hormone, glucagon and insulin (arginine-stimulated, nembutal rats): glucagon; assay type: in vivo; conditions: 100 μg/kg. s.c., arginine challenge
Description: as §1

growth hormone (GH) = assay: Suppression of growth hormone (duration of activity after sc injection); assay type: in vivo, rats; conditions: 1000 μg/kg. sc, rats
Description: A subcutaneous (sc) injection of peptide solubilized or suspended in physiological saline, is given to Charles River CD® nonfasted male rats. Matched saline control solution sc injected rats serve as control animals so that every experimental rat is paired with a control rat. The rats are kept in separate cages and 20 minutes before the end of the test time period they are given an intraperitoneal (i.p.) injection of Nembutal® at a dose of 50 mg/kg. Blood samples are obtained by cardiac puncture and the plasma separated for the radioimmunoassay of growth hormone (GH) concentration (ng/ml.). Time periods after injection of 2, 4, 5, and 6 hours are generally used to test the duration of the activity of the peptide to suppress circulating peripheral GH levels. Comparisons between control and experimental GH values at each time are evaluated by the Student "t" test and statistical significance (p) at the 0.05 level or lower is used as the index of activity.

insulin = assay: Suppression of growth hormone, glucagon and insulin (arginine-stimulated, nembutal rats): insulin; assay type: in vivo; conditions: 100 μg/kg. s.c., arginine challenge
Description: as §1

C[C@@H](O)[C@@H]1NC(=O)[C@H](Cc2ccccc2)NC(=O)[C@H]([C@@H](C)O)NC(=O)[C@H](CCCCN)NC(=O)[C@@H](Cc2c[nH]c3ccccc23)NC(=O)[C@H](Cc2ccccc2)NC(=O)[C@H](Cc2ccccc2)NC(=O)[C@@H](CCC(=O)O)NC(=O)[C@@H](Cc2ccc(O)cc2)NC(=O)[C@@H](N)CSSC[C@@H](C(=O)O)NC(=O)[C@H](CO)NC1=O [J, L-Cysteinyl-D-Tyrosyl-D-Glutamyl-L-Phenylalanyl-L-Phenylalanyl-D-Tryptophyl-L-Lysyl-L-Threonyl-L-Phenylalanyl-L-Threonyl-L-Seryl-L-Cysteine Cyclic (1-12)-Disulfide] (H-C[dY][dE]FF[dW]KTFTSC-OH; disulfide 1-12)
GH (growth hormone): 128 ± 24
Glucagon (glucagon): 45 ± 4 pg/mL
GH, 2 Hours (growth hormone (GH); 2 hours): 311 ± 68 ng/mL
GH, 4 Hours (growth hormone (GH); 4 hours): 179 ± 39 ng/mL
Insulin (insulin): 263 ± 28 μU/ml.

— patent US4122077A, “Somatostatin analogs” (American Home Products Corporation, priority 1977, dated 1978)
